The subject of one series is VCap cells. Briefly: Inhibition of proliferation of VCap cells (Cell Titer Glo, 6 days). The class given is cell-based. The settings on record: Homo sapiens, VCaP, 144 h. As to the method: Tumor cell line VCap FGC (ATCC catalog number CRL-2876) was cultured in DMEM (Gibco catalog number 11965-092) medium containing 10% FBS (Gibco catalog number 10099-141C), respectively. During the determination, Vcap cells were replaced with DMEM medium containing 5% FBS and 0.1 nM R1881 (Sigma catalog number R0908).
Vcap FGC cells were inoculated in a 384-well plate (Perkin Elmer catalog number 6007460) at a cell density of 1200 cells/well in a volume of 20 μL/well and incubated overnight in a carbon dioxide incubator (Thermo). The prepared compound solutions of different concentrations were added in a volume of 5 μL/well. The corresponding vehicle control was set at the same time. After being cultured in the incubator for 6 days, the cell plate and the contents were equilibrated to room temperature, and 25 μL of Cell Titer Glor (Promega catalog number G7573) was added to each well, shake and mix well, incubated in dark for 10-30 minutes, and the signal values were detected though Envision microplate reader (PerkinElmer).
The percentage inhibition rate of compound-treated wells was calculated from vehicle control wells on the plate, and the percentage inhibition rate data corresponding to different concentrations were fitted by GraphPad prism, and the IC50 values were calculated by 4-parameter nonlinear logic formula.
(In ATP-based viability assays light output follows the ATP content of the culture.)

A short description of series [1]: In vivo pharmacokinetics in mice, intravenous injection and oral administration. On the set-up: species or system mouse. As to conditions: male CD1 mice. As to the method: In this experimental example, in vivo pharmacokinetics in mice were evaluated by intravenous injection and oral administration.
Experimental methods and conditions: Male CD1 mice, aged 6-8 weeks, all animals were free access to food and water, and were given a single dose of the compound to be tested at 1 mg/Kg by intravenous injection (solvent 5% DMSO/15% Solutol/80% Saline), at 5 min, 15 min, 30 min, 1 hr, 2 hr, 4 hr, 8 hr, 24 hr, 48 h after drug administration, or oral gavage administration of 10 mg/kg (solvent 5% DMSO/10% Solutol/85% Saline), at 15 min, 30 min, 1 hr, 2 hr, 4 hr, 6 h, 8 hr, 24 hr, 48 h after administration, blood was collected from the orbit, no less than 50 μL for each sample, heparin sodium was used for anticoagulation, and then placed on ice after collection, and centrifuged within 1 hour to separate the plasma for testing. The plasma concentration of the drug was detected by liquid tandem mass spectrometry (LC/MS/MS), and the pharmacokinetic parameters were calculated by Phoenix WinNonlin software.

Series [2] relates to human prostate cancer VCaP cell subcutaneous xenograft tumor. Briefly: In vivo pharmacodynamic study, human prostate cancer VCaP cell subcutaneous xenograft tumor CB17 SCID mouse model. The settings on record: for tumor growth inhibition rate (TGI): castrated CB17 SCID mice, 24th day after administration. As for the experimental part: Experimental animal: male mice of CB17 SCID strain, aged 6-8 weeks, weighing 18-22 grams, supplier: Beijing Weitong Lihua Laboratory Animal Technology Co., Ltd. Shanghai Branch, animal certificate number: 20170011005577. Animals were reared in the experimental environment for 7 days after arrival and the experiment was started.
Experimental method: Human prostate cancer cell VCaP cells (ATCC-CRL-2876) were cultured in vitro in monolayer, and the culture conditions were DMEM medium with 20% fetal bovine serum, 100 U/mL penicillin and 100 μg/mL streptomycin, cultured in a 5% CO2 incubator at 37° C. Conventional digestion with trypsin-EDTA was performed twice a week for passage. When the cell saturation was 80%-90% and the number reached the requirement, the cells were collected, counted, and inoculated. 0.2 mL (10× 10^6 cells+Matrigel) VCaP cells were subcutaneously inoculated into the left upper limb of each mouse, and castration was performed 33 days after cell inoculation. When the average tumor volume reached 119 mm^3, the drugs were administered in groups, and the doses of compound 14 were set to four groups: 1 mg/kg, 3 mg/kg, 10 mg/kg and 30 mg/kg.
Daily observation of experimental animals: the health status and death of animals were monitored every day. Routine examinations included observing the effects of tumor growth and drug treatment on the daily behavior of animals, such as behavioral activities, food and water intake (visual observation only), and weight changes (body weight measured three times a week), physical signs or other abnormal conditions.
Tumor measurements and experimental indicators: Experimental indicators were to examine whether tumor growth was inhibited, delayed or cured. Tumor diameters were measured with vernier calipers three times a week.
The calculation formula of tumor volume is: V=0.5a×b2, where a and b represented the long diameter and short diameter of the tumor, respectively. The antitumor effect of the compound was evaluated by TGI (%) or relative tumor proliferation rate T/C (%). TGI (%), reflecting the tumor growth inhibition rate. Calculation of TGI (%): TGI (%)=[1−(average tumor volume at the end of administration of a certain treatment group−average tumor volume at the beginning of administration of the treatment group)/(average tumor volume at the end of treatment in the vehicle control group−average tumor volume at the beginning of treatment in the vehicle control group)]×100%. Relative tumor proliferation rate T/C (%): the calculation formula is as follows: T/C %=TRTV/CRTV×100% (TRTV: RTV in the treatment group; CRTV: RTV in the negative control group). The relative tumor volume (RTV) was calculated according to the results of tumor measurement, and the formula is RTV=Vt/V0, where V0 is the average tumor volume measured at the time of group administration (i.e. d0), and Vt is the average tumor volume at a certain measurement, and TRTV and CRTV were taken on the same day. After the experiment, the tumor weight would be detected, and the percentage of T/Cweight would be calculated. Tweight and Cweight represent the tumor weight of the administration group and the vehicle control group, respectively.
Statistical analysis: Statistical analysis included the mean and standard error (SEM) of tumor volume at each time point for each group. […] T-test was used for comparison between two groups, and one-way ANOVA was used for comparison between three or more groups. […]
(A xenograft is tissue or cells of one species grown in another, often human tumour cells in immunodeficient mice.)

[3] abbreviates: mouse, intravenous administration 1 mg/kg, plasma.
[4] abbreviates: mouse, oral administration 10 mg/kg, plasma.

Molecules are shown by their SMILES. pIC50: −log10 of the molar value.

As for `CC1(C)C(=O)N(c2ccc(C#N)c(Cl)c2)c2ccc(-c3ccc(N4CC(CN5CCN(c6ccc7c(c6)C(=O)N(C6CCC(=O)NC6=O)C7=O)CC5)C4)nc3F)cc21` (stereo not drawn) [Compound 14], in the series with VCap cells, the Emax is 94% and the negative-log IC50 (pIC50) – broadly, the negative decadic logarithm of the IC50, by convention in mol/L – was 7.17. For the same compound, the F in series [1] (oral administration 10 mg/kg vs intravenous 1 mg/kg) stood at 68.6%. Moreover, in series [1] (setting [3]), the AUC(0-inf) (commonly total exposure, with the tail of the curve extrapolated) was found to be 10400 ng·h/mL; the clearance was 1.61 mL/min/kg; the half-life (in general, the time in which the quantity being followed falls by half) was 20.4 h. In series [1] (setting [4]), the AUC(0-inf) was 71100 ng·h/mL, the concentration peaked (Cmax) at 2650 ng/mL and the half-life is 17.8 h. Moreover, the “tolerance (body weight, FIG. 2)” value in series [2] (10 mpk and 30 mpk, CB17 SCID mice) is listed as “better tolerance than Reference substance 1”. For the same compound, in series [2] (dose 10 mpk), the “tumor growth inhibition rate (TGI)” value amounted to 96%. In addition, the “tumor growth inhibition rate (TGI)” value in series [2] (dose 30 mpk) is reported as 96%.

For the origin of these results see patent US12441706B2, “Protein degradation agent compound preparation method and application” (SHANGHAI JEMINCARE PHARMACEUTICALS CO., LTD., priority 2019, dated 2025).
